We go through 19 compounds from patent US9242987B2, “Heterocyclyl pyrazolopyrimidine analogues as JAK inhibitors” (Cellzome Limited, priority 2009, dated 2016).

One experiment addresses T1, JAK2 (Homo sapiens, UniProt O60674).
T1 construct: endogenous in cells; host or cells: Mixed Molt4/Ramos lysate (1:2)
Put plainly: Kinobeads assay, JAK2. The format is binding. The following applies: mixed Molt4/Ramos cell lysate, dot blot detection. As to the method:
(§1) The compounds of the present invention as described in the previous examples were tested in a Kinobeads™ assay as described for ZAP-70 (WO-A 2007/137867). Briefly, test compounds (at various concentrations) and the affinity matrix with the immobilized aminopyrido-pyrimidine ligand 24 were added to cell lysate aliquots and allowed to bind to the proteins in the lysate sample. After the incubation time the beads with captured proteins were separated from the lysate. Bound proteins were then eluted and the presence of JAK2 and JAK3 was detected and quantified using specific antibodies in a dot blot procedure and the Odyssey infrared detection system. Dose response curves for individual kinases were generated and IC50 values calculated. Kinobeads™ assays for ZAP-70 (WO-A 2007/137867) and for kinase selectivity profiling (WO-A 2006/134056) have been previously described.
(§2) The affinity matrix was washed two times with 15 mL of 1×DP buffer containing 0.2% NP40 (IGEPAL® CA-630, Sigma, #13021) and then resuspended in 1×DP buffer containing 0.2% NP40 (3% beads slurry).
(§3) 5×DP buffer: 250 mM Tris-HCl pH 7.4, 25% Glycerol, 7.5 mM MgCl2, 750 mM NaCl, 5 mM Na3VO4; filter the 5×DP buffer through a 0.22 μm filter and store in aliquots at −80° C. The 5×DP buffer is diluted with H2O to 1×DP buffer containing 1 mM DTT and 25 mM NaF.
(§4) Stock solutions of test compounds were prepared in DMSO. In a 96 well plate 30 μL solution of diluted test compounds at 5 mM in DMSO were prepared. Starting with this solution a 1:3 dilution series (9 steps) was prepared. For control experiments (no test compound) a buffer containing 2% DMSO was used.
(§5) Molt4 cells (ATCC catalogue number CRL-1582) and Ramos cells (ATCC catalogue number CRL-1596) were grown in 1 L Spinner flasks (Integra Biosciences, #182101) in suspension in RPMI 1640 medium (Invitrogen, #21875-034) supplemented with 10% Fetal Bovine Serum (Invitrogen) at a density between 0.15×10^6 and 1.2×10^6 cells/mL. Cells were harvested by centrifugation, washed once with 1×PBS buffer (Invitrogen, #14190-094) and cell pellets were frozen in liquid nitrogen and subsequently stored at −80° C. Cells were homogenized in a Potter S homogenizer in lysis buffer: 50 mM Tris-HCl, 0.8% NP40, 5% glycerol, 150 mM NaCl, 1.5 mM MgCl2, 25 mM NaF, 1 mM sodium vanadate, 1 mM DTT, pH 7.5. One complete EDTA-free tablet (protease inhibitor cocktail, Roche Diagnostics, 1873580) per 25 mL buffer was added. The material was dounced 10 times using a mechanized POTTER S, transferred to 50 mL falcon tubes, incubated for 30 minutes on ice and spun down for 10 minutes at 20,000 g at 4° C. (10,000 rpm in Sorvall SLA600, precooled). The supernatant was transferred to an ultracentrifuge (UZ)-polycarbonate tube (Beckmann, 355654) and spun for 1 hour at 100.000 g at 4° C. (33.500 rpm in Ti50.2, precooled). The supernatant was transferred again to a fresh 50 mL falcon tube, the protein concentration was determined by a Bradford assay (BioRad) and samples containing 50 mg of protein per aliquot were prepared. The samples were immediately used for experiments or frozen in liquid nitrogen and stored frozen at −80° C.
(§6) Cell lysate (approximately 50 mg protein per plate) was thawed in a water bath at room temperature and then stored on ice. To the thawed cell lysate 1×DP 0.8% NP40 buffer containing protease inhibitors (1 tablet for 25 mL buffer; EDTA-free protease inhibitor cocktail; Roche Diagnostics 1873580) was added in order to reach a final protein concentration of 10 mg/mL total protein. The diluted cell lysate was stored on ice. Mixed Molt4/Ramos lysate was prepared by combining one volume of Molt4 lysate and two volumes of Ramos lysate (ratio 1:2).
(§7) To a 96 well filter plate (Multiscreen HTS, BV Filter Plates, Millipore #MSBVN1250) were added per well: 100 μL affinity matrix (3% beads slurry), […], of compound solution, and 50 μL of diluted lysate. […]

For the next experiment, the target named is T2, JAK3 (Homo sapiens, UniProt P52333).
T2 construct: endogenous in cells; host or cells: Mixed Molt4/Ramos lysate (1:2)
T2 sequence (P52333 1-1124): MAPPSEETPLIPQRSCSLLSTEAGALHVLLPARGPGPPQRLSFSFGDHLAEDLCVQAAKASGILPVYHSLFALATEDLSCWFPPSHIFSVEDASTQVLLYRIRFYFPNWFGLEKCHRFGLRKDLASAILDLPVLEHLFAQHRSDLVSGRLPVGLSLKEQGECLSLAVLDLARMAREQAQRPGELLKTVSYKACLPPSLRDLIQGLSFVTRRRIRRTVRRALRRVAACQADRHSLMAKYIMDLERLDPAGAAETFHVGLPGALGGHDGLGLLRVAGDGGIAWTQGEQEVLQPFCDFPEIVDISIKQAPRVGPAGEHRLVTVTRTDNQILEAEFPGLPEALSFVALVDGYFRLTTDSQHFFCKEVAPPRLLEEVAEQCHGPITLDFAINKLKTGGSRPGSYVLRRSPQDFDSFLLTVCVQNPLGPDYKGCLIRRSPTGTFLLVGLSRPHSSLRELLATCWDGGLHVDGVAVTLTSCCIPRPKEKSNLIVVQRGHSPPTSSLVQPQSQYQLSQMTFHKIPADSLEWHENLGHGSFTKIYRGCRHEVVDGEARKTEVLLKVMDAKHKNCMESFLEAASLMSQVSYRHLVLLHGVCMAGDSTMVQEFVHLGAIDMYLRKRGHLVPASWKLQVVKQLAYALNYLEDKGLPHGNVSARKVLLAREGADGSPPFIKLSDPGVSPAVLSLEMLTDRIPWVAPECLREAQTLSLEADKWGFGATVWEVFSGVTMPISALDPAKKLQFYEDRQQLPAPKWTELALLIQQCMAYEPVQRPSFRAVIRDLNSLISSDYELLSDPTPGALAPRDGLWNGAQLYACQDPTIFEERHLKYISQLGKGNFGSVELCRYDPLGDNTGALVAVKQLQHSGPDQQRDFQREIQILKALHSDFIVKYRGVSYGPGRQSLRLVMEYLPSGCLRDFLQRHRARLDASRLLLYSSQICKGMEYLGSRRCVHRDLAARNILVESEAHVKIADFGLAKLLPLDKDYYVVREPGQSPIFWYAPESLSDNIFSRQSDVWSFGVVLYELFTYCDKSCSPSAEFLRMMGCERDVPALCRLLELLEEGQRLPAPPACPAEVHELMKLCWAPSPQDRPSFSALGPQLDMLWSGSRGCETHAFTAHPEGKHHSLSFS
Put plainly: Kinobeads assay, JAK3. The format is binding. The settings on record: mixed Molt4/Ramos cell lysate, dot blot detection. On the procedure:
as §1, §2, §3, §4, §5, §6, §7

T1 sequence (O60674 whole entry): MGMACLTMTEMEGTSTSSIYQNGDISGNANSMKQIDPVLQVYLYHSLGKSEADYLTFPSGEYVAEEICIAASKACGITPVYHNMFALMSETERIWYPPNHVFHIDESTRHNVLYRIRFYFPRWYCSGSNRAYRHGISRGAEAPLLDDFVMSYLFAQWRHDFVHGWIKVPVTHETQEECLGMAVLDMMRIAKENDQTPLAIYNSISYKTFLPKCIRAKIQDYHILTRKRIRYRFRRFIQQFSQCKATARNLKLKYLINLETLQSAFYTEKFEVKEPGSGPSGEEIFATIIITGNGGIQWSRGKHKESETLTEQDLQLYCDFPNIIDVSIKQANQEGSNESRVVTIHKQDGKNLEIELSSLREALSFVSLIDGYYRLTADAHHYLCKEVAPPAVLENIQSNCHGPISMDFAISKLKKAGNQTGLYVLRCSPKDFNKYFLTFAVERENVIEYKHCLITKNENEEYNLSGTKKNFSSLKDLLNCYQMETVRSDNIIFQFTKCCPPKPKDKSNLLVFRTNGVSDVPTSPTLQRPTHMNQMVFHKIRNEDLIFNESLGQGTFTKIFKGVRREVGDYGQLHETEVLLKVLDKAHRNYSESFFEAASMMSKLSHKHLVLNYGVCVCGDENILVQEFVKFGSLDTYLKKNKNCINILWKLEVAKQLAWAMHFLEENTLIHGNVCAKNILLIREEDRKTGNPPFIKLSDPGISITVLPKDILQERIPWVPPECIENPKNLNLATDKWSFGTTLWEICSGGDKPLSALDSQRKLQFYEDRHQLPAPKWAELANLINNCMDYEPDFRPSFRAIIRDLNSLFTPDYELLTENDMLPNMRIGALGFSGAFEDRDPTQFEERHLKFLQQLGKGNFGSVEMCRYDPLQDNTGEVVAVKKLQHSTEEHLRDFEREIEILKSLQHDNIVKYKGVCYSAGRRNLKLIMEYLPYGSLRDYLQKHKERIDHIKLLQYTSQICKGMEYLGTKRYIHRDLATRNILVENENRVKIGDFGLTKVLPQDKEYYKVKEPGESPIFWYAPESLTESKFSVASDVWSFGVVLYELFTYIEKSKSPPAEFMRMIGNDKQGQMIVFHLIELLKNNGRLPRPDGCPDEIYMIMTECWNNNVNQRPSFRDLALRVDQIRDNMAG

Turning to `Cn1cc(Nc2ncc3cnn(Cc4ccccc4C#N)c3n2)cn1` [Example 1, 2-((6-(1-Methyl-1H-pyrazol-4-ylamino)-1H-pyrazolo[3,4-d]pyrimidin-1-yl)methyl)benzonitrile], the IC50 at JAK2 was 1000 to 10000 nM; against JAK3, less than 100 nM.

In the case of `Cn1cc(Nc2ncc3cnn(Cc4ccccc4F)c3n2)cn1` [Example 2, 1-(2-Fluorobenzyl)-N-(1-methyl-1H-pyrazol-4-yl)-1H-pyrazolo[3,4-d]pyrimidin-6-amine], the IC50 is 1000 to 10000 nM against JAK2 and less than 100 nM on JAK3.

`Cn1ccc(Nc2ncc3cnn(Cc4ccccc4C#N)c3n2)n1` [Example 3, 2-((6-(1-Methyl-1H-pyrazol-3-ylamino)-1H-pyrazolo[3,4-d]pyrimidin-1-yl)methyl)benzonitrile]: the IC50 against JAK2 is not below 10000 nM; at JAK3 it was 100 to 1000 nM.

As for `N#Cc1ccccc1Cn1ncc2cnc(Nc3cn[nH]c3)nc21` [Example 4, 2-((6-(1H-Pyrazol-4-ylamino)-1H-pyrazolo[3,4-d]pyrimidin-1-yl)methyl)benzonitrile], the figures for the IC50 at JAK2 and at JAK3 were 100 to 1000 nM and less than 100 nM, respectively.

With `N#Cc1ccccc1Cn1ncc2cnc(Nc3ccon3)nc21` [Example 8], the IC50 on JAK2 was not below 10000 nM; against JAK3, 1000 to 10000 nM.

As to `Cc1cc(Nc2ncc3cnn(Cc4ccccc4C#N)c3n2)nn1C` [Example 9, 2-((6-(1,5-Dimethyl-1H-pyrazol-3-ylamino)-1H-pyrazolo[3,4-d]pyrimidin-1-yl)methyl)benzonitrile], the IC50 at JAK2 was not below 10000 nM; against JAK3, 100 to 1000 nM.

With `COCCn1cc(Nc2ncc3cnn(Cc4ccccc4C#N)c3n2)cn1` [Example 10, 2-((6-(1-(2-Methoxyethyl)-1H-pyrazol-4-ylamino)-1H-pyrazolo[3,4-d]pyrimidi-1-yl)methyl)benzonitrile], the half-inhibitory concentration (IC50) against JAK2 is 100 to 1000 nM; at JAK3, less than 100 nM.

In the case of `CCn1cc(Nc2ncc3cnn(Cc4ccccc4C#N)c3n2)cn1` [Example 11, 2-((6-(1-Ethyl-1H-pyrazol-4-ylamino)-1H-pyrazolo[3,4-d]pyrimidin-1-yl)methyl)benzonitrile], the figures for the half-maximal inhibitory concentration (IC50) against JAK2 and against JAK3 were 1000 to 10000 nM and less than 100 nM, respectively.

Consider `CC(C)n1cc(Nc2ncc3cnn(Cc4ccccc4C#N)c3n2)cn1` [Example 12, 2-((6-(1-Isopropyl-1H-pyrazol-4-ylamino)-1H-pyrazolo[3,4-d]pyrimidin-1-yl)methyl)benzonitrile], for which the IC50 on JAK2 was 1000 to 10000 nM; at JAK3 it was less than 100 nM.

Regarding `CNC(=O)Cn1cc(Nc2ncc3cnn(Cc4ccccc4C#N)c3n2)cn1` [Example 13, 2-(4-(1-(2-Cyanobenzyl)-1H-pyrazolo[3,4-d]pyrimidin-6-ylamino)-1H-pyrazol-1-yl)-N-methylacetamide], the IC50 was 100 to 1000 nM against JAK2 and less than 100 nM at JAK3.

In the case of `N#Cc1ccccc1Cn1ncc2cnc(Nc3cnn(CC(=O)N4CCOCC4)c3)nc21` [Example 14, 2-((6-(1-(2-Morpholino-2-oxoethyl)-1H-pyrazol-4-ylamino)-1H-pyrazolo[3,4-d]pyrimidin-1-yl)methyl)benzonitrile], the IC50 on JAK2 was 100 to 1000 nM; at JAK3, less than 100 nM.

`N#CCCn1cc(Nc2ncc3cnn(Cc4ccccc4C#N)c3n2)cn1` [Example 15, 2-((6-(1-(2-Cyanoethyl)-1H-pyrazol-4-ylamino)-1H-pyrazolo[3,4-d]pyrimidin-1-yl)methyl)benzonitrile]: the IC50 against JAK2 is 1000 to 10000 nM; against JAK3, less than 100 nM.

Turning to `Cn1cc(Nc2ncc3cnn(Cc4ccccc4C(N)=O)c3n2)cn1` [Example 16, 2-((6-(1-Methyl-1H-pyrazol-4-ylamino)-1H-pyrazolo[3,4-d]pyrimidin-1-yl)methyl)benzamide], the IC50 was 1000 to 10000 nM against JAK2 and less than 100 nM at JAK3.

On to `CN(c1ccc(-n2ncc3cnc(Nc4cnn(C)c4)nc32)cc1)S(C)(=O)=O` [Example 17, N-Methyl-N-(4-(6-(1-methyl-1H-pyrazol-4-ylamino)-1H-pyrazolo[3,4-d]pyrimidin-1-yl)phenyl)methanesulfonamide], for which the IC50 against JAK2 and at JAK3 was 100 to 1000 nM each time.

Take `Cn1cc(Nc2ncc3cnn(-c4ccc(NS(C)(=O)=O)cc4)c3n2)cn1` [Example 18, N-(4-(6-(1-Methyl-1H-pyrazol-4-ylamino)-1H-pyrazolo[3,4-d]pyrimidin-1-yl)phenyl)methanesulfonamide]: the IC50 at JAK2 is 100 to 1000 nM; against JAK3 it was less than 100 nM.

Turning to `CC(C)n1ccc(Nc2ncc3cnn(Cc4ccccc4C#N)c3n2)n1` [Example 19, 2-((6-(1-Isopropyl-1H-pyrazol-3-ylamino)-1H-pyrazolo[3,4-d]pyrimidin-1-yl)methyl)benzonitrile], the IC50 at JAK2 was not below 10000 nM; against JAK3 it was 1000 to 10000 nM.

Regarding `N#CCCCn1cc(Nc2ncc3cnn(Cc4ccccc4C#N)c3n2)cn1` [Example 20, 2-((6-(1-(3-Cyanopropyl)-1H-pyrazol-4-ylamino)-1H-pyrazolo[3,4-d]pyrimidin-1-yl)methyl)benzonitrile], the IC50 is 1000 to 10000 nM on JAK2 and less than 100 nM at JAK3.

`Cn1cc(Nc2ncc3cnn(Cc4cccc(N5CCOCC5)c4)c3n2)cn1` [Example 162, N-(1-Methyl-1H-pyrazol-4-yl)-1-(3-morpholinobenzyl)-1H-pyrazolo[3,4-d]pyrimidin-6-amine] registered a concentration for half-maximal inhibition (IC50) at JAK2 not below 10000 nM.

Take `O=C(c1cccc(Cn2ncc3cnc(Nc4cnn(CCO)c4)nc32)c1F)N1CCOCC1` [Example 313, (2-Fluoro-3-((6-((1-(2-hydroxyethyl)-1H-pyrazol-4-yl)amino)-1H-pyrazolo[3,4-d]pyrimidin-1-yl)methyl)phenyl)(morpholino)methanone]: the IC50 against JAK2 was not below 10000 nM.

In general, IC50 refers to the concentration that inhibits the measured activity by half. Low values mean inhibition by little substance, high ones a need for much substance.
